Measurements: patent US10323060B2, “Benzoic acid derivatives of bile acid as FXR/TGR5 agonists and methods of use thereof” (ENANTA PHARMACEUTICALS, INC., priority 2016, dated 2019)

Molecular target: human FXR (NR1H4) (Homo sapiens (Human), UniProt Q96RI1)
Assay: Human FXR (NR1H4) Assay (luciferase reporter, Indigo Bioscience kit); on Efficacy (%): efficacy normalized to CDCA set as 100%
Format: cell-based
Settings: for EC50: FXR agonistic potency range, CHO reporter cells expressing human NR1H4, 22 hours incubation; for Emax: read-out: Efficacy (%)
Text: Assays Human FXR (NR1H4) Assay
Determination of a ligand mediated Gal4 promoter driven transactivation to quantify ligand binding mediated activation of FXR. FXR Reporter Assay kit purchased from Indigo Bioscience (Catalogue number: IB00601) to determine the potency and efficacy of compound developed by Enanta that can induce FXR activation. The principle application of this reporter assay system is to quantify functional activity of human FXR. The assay utilizes non-human mammalian cells, CHO (Chinese hamster ovary) cells engineered to express human NR1H4 protein (referred to as FXR). Reporter cells also incorporate the cDNA encoding beetle luciferase which catalyzes the substrates and yields photon emission. Luminescence intensity of the reaction is quantified using a plate-reading luminometer, Envision. Reporter Cells include the luciferase reporter gene functionally linked to an FXR responsive promoter. Thus, quantifying changes in luciferase expression in the treated reporter cells provides a sensitive surrogate measure of the changes in FXR activity. […] The assay is according to the manufacturer's instructions. In brief, the assay was performed in white, 96 well plates using final volume of 100 ul containing cells with different doses of compounds. Retrieve Reporter Cells from −80° C. storage. Perform a rapid thaw of the frozen cells by transferring a 10 ml volume of 37° C. cell recovery medium into the tube of frozen cells. Recap the tube of Reporter Cells and immediately place it in a 37° C. water bath for 5-10 minutes. Retrieve the tube of Reporter Cell Suspension from the water bath. Sanitize the outside surface of the tube with a 70% alcohol swab, and then transfer it into the cell culture hood. Dispense 90 μl of cell suspension into each well of the 96-well Assay Plate. Transfer the plate into 37° C. incubator, allowing the cells adherent to the bottom of the well. Dilute compounds in Dilution Plate (DP), and administrate to cells at Assay Plate (AP). DMSO content of the samples was kept at 0.2%. Cells were incubated for additional 22 hours before luciferase activities were measured. Thirty minutes before intending to quantify FXR activity, remove Detection Substrate and Detection Buffer from the refrigerator and place them in a low-light area so that they may equilibrate to room temperature. Remove the plate's lid and discard all media contents by ejecting it into an appropriate waste container. Gently tap the inverted plate onto a clean absorbent paper towel to remove residual droplets. Cells will remain tightly adhered to well bottoms. Add 100 μl of luciferase detection reagent to each well of the assay plate. Allow the assay plate to rest at room temperature for at least 5 minutes following the addition of LDR. Set the instrument (Envision) to perform a single 5 second “plate shake” prior to reading the first assay well. Read time may be 0.5 second (500 mSec) per well.

Sequence of human FXR (NR1H4) (Q96RI1 whole entry): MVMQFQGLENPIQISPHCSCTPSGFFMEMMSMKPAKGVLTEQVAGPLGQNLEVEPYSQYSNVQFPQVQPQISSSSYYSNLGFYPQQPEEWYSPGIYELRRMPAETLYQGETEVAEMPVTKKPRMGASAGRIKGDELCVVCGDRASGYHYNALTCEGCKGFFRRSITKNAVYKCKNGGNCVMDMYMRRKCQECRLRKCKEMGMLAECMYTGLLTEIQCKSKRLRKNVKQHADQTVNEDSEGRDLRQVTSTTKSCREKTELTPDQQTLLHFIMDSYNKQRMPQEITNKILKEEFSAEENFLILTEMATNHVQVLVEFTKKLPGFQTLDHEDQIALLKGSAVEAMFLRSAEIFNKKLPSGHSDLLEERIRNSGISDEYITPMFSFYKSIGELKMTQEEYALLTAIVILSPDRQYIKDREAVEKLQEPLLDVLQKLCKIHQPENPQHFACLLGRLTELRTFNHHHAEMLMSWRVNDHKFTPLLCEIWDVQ

SMILES	EC50	Emax
CC[C@H]1[C@@H](O)[C@@H]2[C@H](CC[C@]3(C)[C@@H]([C@H](C)CCCc4ccc(C(C)C(=O)O)cc4)CC[C@@H]23)[C@@]2(C)CC[C@@H](O)C[C@@H]12 (some centres unmarked) [Example 17]	1000 to 10000 nM	261%
CC[C@H]1[C@@H](O)[C@@H]2[C@H](CC[C@]3(C)[C@@H]([C@H](C)CC4CC4c4ccc(C(=O)O)cc4)CC[C@@H]23)[C@@]2(C)CC[C@@H](O)C[C@@H]12 (some centres unmarked) [Example 34]	1000 to 10000 nM	195%
CC[C@H]1[C@@H](O)[C@@H]2[C@H](CC[C@]3(C)[C@@H]([C@H](C)Cc4nc5cccc(C(=O)O)c5[nH]4)CC[C@@H]23)[C@@]2(C)CC[C@@H](O)C[C@@H]12 [Example 32]	1000 to 10000 nM	24%
CC[C@H]1[C@@H](O)[C@@H]2[C@H](CC[C@]3(C)[C@@H]([C@H](C)CC4CC4c4cccc(C(=O)O)c4)CC[C@@H]23)[C@@]2(C)CC[C@@H](O)C[C@@H]12 (some centres unmarked) [Example 33]	1000 to 10000 nM	229%
CC[C@H]1[C@@H](O)[C@@H]2[C@H](CC[C@]3(C)[C@@H]([C@H](C)CC4CC4c4ccccc4C(=O)O)CC[C@@H]23)[C@@]2(C)CC[C@@H](O)C[C@@H]12 (some centres unmarked) [Example 10]	100 to 1000 nM	252%
CC[C@H]1[C@@H](O)[C@@H]2[C@H](CC[C@]3(C)[C@@H]([C@H](C)CCCc4ccc(C(=O)O)cc4)CC[C@@H]23)[C@@]2(C)CC[C@@H](O)C[C@@H]12 [Example 20]	1000 to 10000 nM	266%
CC[C@H]1[C@@H](O)[C@@H]2[C@H](CC[C@]3(C)[C@@H]([C@H](C)C/C=C/c4ccc(F)cc4C(=O)O)CC[C@@H]23)[C@@]2(C)CC[C@@H](O)C[C@@H]12 [Example 25]	–	376%
CC[C@H]1[C@@H](O)[C@@H]2[C@H](CC[C@]3(C)[C@@H]([C@H](C)C/C=C/c4ccccc4C#N)CC[C@@H]23)[C@@]2(C)CC[C@@H](O)C[C@@H]12 [Example 29]	1000 to 10000 nM	210%
CC[C@H]1[C@@H](O)[C@@H]2[C@H](CC[C@]3(C)[C@@H]([C@H](C)C/C=C/c4ccc(C(=O)O)c(O)c4)CC[C@@H]23)[C@@]2(C)CC[C@@H](O)C[C@@H]12 [Example 13]	100 to 1000 nM	166%
CC[C@H]1[C@@H](O)[C@@H]2[C@H](CC[C@]3(C)[C@@H]([C@H](C)C/C=C/c4cccc(C(=O)OC)c4)CC[C@@H]23)[C@@]2(C)CC[C@@H](O)C[C@@H]12 [Example 21]	1000 to 10000 nM	92%
CC[C@H]1[C@@H](O)[C@@H]2[C@H](CC[C@]3(C)[C@@H]([C@H](C)CCCc4cccc(C(=O)O)c4)CC[C@@H]23)[C@@]2(C)CC[C@@H](O)C[C@@H]12 [Example 23]	1000 to 10000 nM	292%
CC[C@H]1[C@@H](O)[C@@H]2[C@H](CC[C@]3(C)[C@@H]([C@H](C)C/C=C/c4ccccc4-c4nnn[nH]4)CC[C@@H]23)[C@@]2(C)CC[C@@H](O)C[C@@H]12 [Example 30]	100 to 1000 nM	332%
CC[C@H]1[C@@H](O)[C@@H]2[C@H](CC[C@]3(C)[C@@H]([C@H](C)C/C=C/c4cnccc4C(=O)OC)CC[C@@H]23)[C@@]2(C)CC[C@@H](O)C[C@@H]12 [Example 27]	1000 to 10000 nM	296%
CC[C@H]1[C@@H](O)[C@@H]2[C@H](CC[C@]3(C)[C@@H]([C@H](C)C/C=C/c4ccc(C(=O)O)cc4)CC[C@@H]23)[C@@]2(C)CC[C@@H](O)C[C@@H]12 [Example 19]	100 to 1000 nM	244%
CC[C@H]1[C@@H](O)[C@@H]2[C@H](CC[C@]3(C)[C@@H]([C@H](C)C/C=C/c4cccc(C(=O)O)c4)CC[C@@H]23)[C@@]2(C)CC[C@@H](O)C[C@@H]12 [Example 22]	1000 to 10000 nM	195%
CC[C@H]1[C@@H](O)[C@@H]2[C@H](CC[C@]3(C)[C@@H]([C@H](C)CC=Cc4cc(F)c(O)c(F)c4)CC[C@@H]23)[C@@]2(C)CC[C@@H](O)C[C@@H]12 [Example 4]	100 to 1000 nM	298%
CC[C@H]1[C@@H](O)[C@@H]2[C@H](CC[C@]3(C)[C@@H]([C@H](C)C/C=C/c4ccc(C(C)C(=O)O)cc4)CC[C@@H]23)[C@@]2(C)CC[C@@H](O)C[C@@H]12 (some centres unmarked) [Example 16]	1000 to 10000 nM	248%

SMILES	EC50	Emax
CC[C@H]1[C@@H](O)[C@@H]2[C@H](CC[C@]3(C)[C@@H]([C@H](C)C/C=C/c4ccccc4C(=O)OC)CC[C@@H]23)[C@@]2(C)CC[C@@H](O)C[C@@H]12 [Example 1]	1000 to 10000 nM	217%
CC[C@H]1[C@@H](O)[C@@H]2[C@H](CC[C@]3(C)[C@@H]([C@H](C)Cc4nc5c(C(=O)O)cccc5o4)CC[C@@H]23)[C@@]2(C)CC[C@@H](O)C[C@@H]12 [Example 7]	100 to 1000 nM	195%
CC[C@H]1[C@@H](O)[C@@H]2[C@H](CC[C@]3(C)[C@@H]([C@H](C)CCCc4ccc(C(=O)O)c(O)c4)CC[C@@H]23)[C@@]2(C)CC[C@@H](O)C[C@@H]12 [Example 14]	1000 to 10000 nM	232%
CC[C@H]1[C@@H](O)[C@@H]2[C@H](CC[C@]3(C)[C@@H]([C@H](C)CCCn4nnnc4CC(=O)O)CC[C@@H]23)[C@@]2(C)CC[C@@H](O)C[C@@H]12 [Example 9]	1000 to 10000 nM	172%
CC[C@H]1[C@@H](O)[C@@H]2[C@H](CC[C@]3(C)[C@@H]([C@H](C)C/C=C/c4cnccc4C(=O)O)CC[C@@H]23)[C@@]2(C)CC[C@@H](O)C[C@@H]12 [Example 28]	100 to 1000 nM	300%
CC[C@H]1[C@@H](O)[C@@H]2[C@H](CC[C@]3(C)[C@@H]([C@H](C)C/C=C/c4ccccc4C(=O)O)CC[C@@H]23)[C@@]2(C)CC[C@@H](O)C[C@@H]12 [Example 2]	< 100 nM	313%
CC[C@H]1[C@@H](O)[C@@H]2[C@H](CC[C@]3(C)[C@@H]([C@H](C)CCCc4cc(F)c(O)c(F)c4)CC[C@@H]23)[C@@]2(C)CC[C@@H](O)C[C@@H]12 [Example 5]	1000 to 10000 nM	271%
CC[C@H]1[C@@H](O)[C@@H]2[C@H](CC[C@]3(C)[C@@H]([C@H](C)C/C=C/c4ccc(C(=O)OC)c(O)c4)CC[C@@H]23)[C@@]2(C)CC[C@@H](O)C[C@@H]12 [Example 12]	1000 to 10000 nM	134%
CC[C@H]1[C@@H](O)[C@@H]2[C@H](CC[C@]3(C)[C@@H]([C@H](C)CCOc4ccc(F)cc4C(=O)O)CC[C@@H]23)[C@@]2(C)CC[C@@H](O)C[C@@H]12 [Example 35]	100 to 1000 nM	203%
CC[C@H]1[C@@H](O)[C@@H]2[C@H](CC[C@]3(C)[C@@H]([C@H](C)CCCn4nnc(CC(=O)O)n4)CC[C@@H]23)[C@@]2(C)CC[C@@H](O)C[C@@H]12 [Example 8]	1000 to 10000 nM	29%
CC[C@H]1[C@@H](O)[C@@H]2[C@H](CC[C@]3(C)[C@@H]([C@H](C)C/C=C/c4ccc(-c5nnn[nH]5)cc4)CC[C@@H]23)[C@@]2(C)CC[C@@H](O)C[C@@H]12 [Example 24]	1000 to 10000 nM	234%
CC[C@H]1[C@@H](O)[C@@H]2[C@H](CC[C@]3(C)[C@@H]([C@H](C)Cc4nc5c(C(=O)OC)cccc5o4)CC[C@@H]23)[C@@]2(C)CC[C@@H](O)C[C@@H]12 [Example 6]	1000 to 10000 nM	131%
CC[C@H]1[C@@H](O)[C@@H]2[C@H](CC[C@]3(C)[C@@H]([C@H](C)Cc4nc5cccc(C(=O)OC)c5[nH]4)CC[C@@H]23)[C@@]2(C)CC[C@@H](O)C[C@@H]12 [Example 31]	1000 to 10000 nM	34%
CC[C@H]1[C@@H](O)[C@@H]2[C@H](CC[C@]3(C)[C@@H]([C@H](C)CCCc4ccc(F)cc4C(=O)O)CC[C@@H]23)[C@@]2(C)CC[C@@H](O)C[C@@H]12 [Example 26]	100 to 1000 nM	256%
CC[C@H]1[C@@H](O)[C@@H]2[C@H](CC[C@]3(C)[C@@H]([C@H](C)C/C=C/c4ccc(C(=O)OC)cc4)CC[C@@H]23)[C@@]2(C)CC[C@@H](O)C[C@@H]12 [Example 18]	1000 to 10000 nM	113%
CC[C@H]1[C@@H](O)[C@@H]2[C@H](CC[C@]3(C)[C@@H]([C@H](C)CCCc4ccccc4C(=O)O)CC[C@@H]23)[C@@]2(C)CC[C@@H](O)C[C@@H]12 [Example 3]	100 to 1000 nM	352%
